Test results: article PMC7037305 (2020)

Experiments:
[1] = test system: Telomere G1 (DNA, G4) TAGGGTTAGGGTTAGGGTTAGGG; experiment: ITC; conditions: K+ (50 mM KH2PO4-K2HPO4); potassium phosphate buffer pH 7.0, 25 °C, dilute condition without PEG200
[2] = test system: c-myc (DNA, G4) TGAGGGTGGGGAGGGTGGGGAA; experiment: ITC; conditions: K+ (50 mM KH2PO4-K2HPO4); potassium phosphate buffer pH 7.0, 25 °C, dilute condition without PEG200
[3] = test system: Telomere G1 (DNA, G4) TAGGGTTAGGGTTAGGGTTAGGG; experiment: CD melting at 288 nm; conditions: 100 mM KCl, 50 mM Tris-HCl pH 7.4, 4.5 μM compound, 1.5 μM DNA
[4] = test system: c-myc (DNA, G4) TGAGGGTGGGGAGGGTGGGGAA; experiment: CD melting at 263 nm; conditions: 5 mM KCl; 50 mM Tris-HCl pH 7.4; 4.5 μM compound, 1.5 μM DNA

| Ka [1] [M⁻¹] | Ka [2] [M⁻¹] | ΔTm ([3]; derived from two Tm (73.5, 65)) [°C] | ΔTm [4] [°C] | ΔTm ([3]; derived from two Tm (70.5, 65)) [°C] | ΔTm ([3]; derived from two Tm (79, 65)) [°C] | SMILES |
| --- | --- | --- | --- | --- | --- | --- |
| 1.5e+06 | 6.2e+06 | 8.5 | > 15 |  |  | CN1CCCNC(=O)CC2(CCCCC2)CC(=O)NCCCN(C)CCCN2C(=O)c3ccc4c5c(ccc(c35)C2=O)C(=O)N(CCC1)C4=O |
| 3.4e+06 | 1.1e+06 |  | > 15 | 5.5 |  | CN1CCCNC(=O)CCCC(=O)NCCCN(C)CCCN2C(=O)c3ccc4c5c(ccc(c35)C2=O)C(=O)N(CCC1)C4=O |
| 2.2e+06 | 2.4e+06 |  | > 15 |  | 14 | CN1CCCNC(=O)c2cccc(c2)C(=O)NCCCN(C)CCCN2C(=O)c3ccc4c5c(ccc(c35)C2=O)C(=O)N(CCC1)C4=O |
